Measurements: patent publication US20120164104A1, “Composition and Methods of Treating Viral Infections and Viral Induced Tumors” (Chimerix, Inc., priority 2009, published 2012)

Experiments:
BKV(Dunlop) [1] = experiment: BKV early and late protein expression in infected RPTECs (immunofluorescence, western blot); type: cell-based; details: for LTag staining reduced / decrease of VP1 by western blotting: CMX001 0.31 μM
Protocol: For FIG. 1(b), indirect immunofluorescence of untreated and CMX001 treated BKV-infected RPTECs, methanol fixed 72 h pd. and stained with rabbit anti-agnoprotein serum (green) for visualization of the late agnoprotein and with the SV40 LTag monoclonal Pab416 for visualization og BKV LTag (red). Cell density is shown by Drac 5 staining in blue.
For FIG. 4(a), indirect immunofluorescence of untreated and CMX001 treated BKV-infected RPTECs, methanol fixed 48 and 72 h p.i. and stained with rabbit anti-agnoprotein serum (green) for visualization of the late agnoprotein and with the SV40 LTag monoclonal Pab416 for visualization of BKV LTag (red). For FIG. 4(b), cell extracts from CMX001-treated and untreated BKV-infected RPTECs were harvested 48 and 72 h p.i. and western blot performed with rabbit anti-BKV VP1, anti-agnoprotein serum and a monoclonal antibody directed against the housekeeping protein GAPDH.
Primary human renal proximal tubule epithelial cells (RPTECs), BKV(Dunlop) and all methods as previously described by Bernhoff et al (See Bernhoff et al., Cidofovir inhibits polyomavirus BK replication in human renal tubular cells downstream of viral early gene expression, Am J Transplant 8, 1413-1422 (2008).) Only one exception, quantitative PCR (qPCR) to quantify intracellular or extracellular BKV DNA load was performed with a different primer/probe set also targeting the LTag gene (See Hirsch, et al., J. Prospective study of polyomavirus type BK replication and nephropathy in renal-transplant recipients, N Engl J. Med., 347, 488-496 (2002)). Before each experiment, CMX001 was freshly dissolved to 1 mg/ml in methanol/water/ammonium hydroxide (50/50/2). It was further diluted in RPTEC growth medium.
To investigate expression of LTag at the single-cell level, immunofluorescence staining at 48 and 72 h p.i was performed. At 48 h p.i. the number of BKV positive cells was almost the same in CMX001 and untreated wells. At 72 h p.i., the CMX001 treated cells seemed to express less LTag pro cell (FIG. 4a).

COS-7 cells = experiment: Metabolic activity of uninfected COS-7 cells (WST-1 assay); type: cell-based
Protocol: Metabolic activity was examined as WST-1 cleavage. Medium with indicated CMX001 concentrations was added to COS-7 cells and absorbance measured 72 h post seeding. Absorbance for untreated cells was set as 100%. The metabolic activity was monitored by the colorimetric WST-1 assay (Roche) of the mitochondrial dehydrogenases in viable cells. COS-7 cells were seeded in 96 well plates and CMX001 was added at indicated concentrations. The WST-1 cleavage product was measured at 450 nm (sample) and at 650 nm (background). WST-1 plus medium alone served as blank.

JCV Mad-4 = experiment: Extracellular JCV load in JCV-infected astrocyte cells (qPCR); type: cell-based; details: in the presence of CMX001
Protocol: FIG. 17 illustrates the effect of increasing concentrations of CMX001 on extracellular viral load in astrocytes. Supernatants from JCV-infected PDA cells treated with indicated concentrations of CMX001 were harvested at indicated timepoints after infection and JCV load measured by qPCR. Data are presented as JCV load in log geq/ml. COS-7 or astrocyte cells were infected at a confluence of 60-70% with JCV(Mad-4) at an estimated TCID50 of 0.2. After 2 h incubation at 37° C., supernatants were replaced with fresh medium without or with increasing concentration CMX001. […] JCV loads were quantified after DNA extraction from 100 ul cell culture supernatants and the Corbett X-tractor Gene and the Corbett VX reagents (Qiagen, Hombrechtikon, Switzerland). The real-time PCR protocol for detection of JCV DNA samples targets the JCV large T coding sequence and has been described elsewhere (5). To examine the effect of CMX001 on JCV progeny levels over time, supernatants of treated and untreated cells were harvested at the indicated timepoints. To determine input virus samples were taken at 1 d.p.i. In the course of the infection for untreated cells, the extracellular JCV load changes approximately 1 log over the period of 7 days (3.22×107 vs 2.30×108 geq/ml).

BKV = experiment: Stability of CMX001 stock solution, tested by antiviral effect on extracellular BKV load; type: cell-based; details: diluted to 0.31 uM
Protocol: FIG. 7 illustrates the stability of CMX001. For FIG. 7, BKV-infected RPTECs were treated with freshly made CMX001 or CMX001 from a stock solution at 1 mg/ml stored for one week at 4° C. or −20° C. Supernatants were harvested 72 h p.i. and extracellular BKV load measured by qPCR. Data are presented as BKV load in percent of untreated cells set at 100%.
To examine the stability of CMX001 stock solution 1 mg/ml was put in 4 or −20° C. for one week then diluted to 0.31 uM and tested for its antiviral effect by measuring the extracellular BKV load in BKV-infected RPTEC 3 d p.i.

COS-7 = experiment: Inspection of COS-7 by phase contrast microscopy; type: cell-based; details: 7 day exposure to CMX001 0.6 μM
BKV(Dunlop) [2] = details: BKV-infected RPTECs, Bernhoff et al., 2008, cited from earlier work

SMILES: CCCCCCCCCCCCCCCCOCCCOP(=O)(O)CO[C@H](CO)Cn1ccc(N)nc1=O [CMX001]
- BKV-infected cells by immunofluorescence staining (BKV(Dunlop) [1]; 5 uM CMX001, 72 h p.i.): only few weakly LTag stained cells but no agnoprotein expressing cells were observed
- BKV-infected cells by immunofluorescence staining (BKV(Dunlop) [1]; 10 uM CMX001, 72 h p.i.): no BKV-infected cell was observed
- LTag staining reduced (BKV(Dunlop) [1]; 48 h p.i.): 33%
- decrease of VP1 by western blotting (BKV(Dunlop) [1]; 48 h p.i.): 86%
- LTag staining reduced (BKV(Dunlop) [1]; 72 h p.i.): 30%
- decrease of VP1 by western blotting (BKV(Dunlop) [1]; 72 h p.i.): 63%
- decrease in BKV agnoprotein expressing cells (BKV(Dunlop) [1]; CMX001 0.31 uM, immunofluorescence 72 h p.i.): approximately 60%
- loss of metabolic activity (COS-7 cells; CMX001 0.6 μM, COS-7): 17%
- IC50 (COS-7 cells; Chlorocebus aethiops, uninfected COS-7 cells): ~5 µM
- change in JCV load over 7 days (JCV Mad-4): less than 1 log
- activity compared to the freshly prepared drug (BKV; stock 1 mg/ml stored one week at 4° C.): less than 60%
- activity compared to the freshly prepared drug (BKV; stock 1 mg/ml stored one week at −20° C.): approximately 90%
- signs of impaired viability (COS-7): did not reveal any signs of impaired viability

SMILES: Nc1ccn(C[C@@H](CO)OCP(=O)(O)O)c(=O)n1 [cidofovir]
- concentration of CDV inhibiting BKV (IC90) (BKV(Dunlop) [2]): 40 µg/mL
- IC90 (BKV(Dunlop) [2]; read-out: concentration of CDV inhibiting BKV (IC90)): 127 µM
